The test system of one data set is GTPCH. To be noted: competes with GTP, a substrate for GTPCH (Gross and Levi 1992); cited from earlier work.
Another data set has as its system human GTPCH. As to the kind of experiment: GCH1 siRNA transfection of GCHtet-off and MCF7 cells, expression of GTPCH and phosphor-Akt. To be noted: 10 nM siRNA, Lipofactamine RNAiMAX, 48 hours. It is filed as cell-based. As for the experimental part:
GCHtet-off cells (described above) and MCF7 cells (4×10^5/well) were cultured in a 24-well plate and transfected with 10 nM of GCH1 siRNA (comprising the sequences of Seq ID Nos: 1 and 2) and scramble siRNA (SCR), respectively using Lipofactamine RNAiMAX. After 48 hours, the cells were harvested and the expression of human GTPCH, phosphor-Akt and GAPDH was determined. The results are illustrated in FIG. 8. A correlation between human GTPCH expression and phosphor-Akt was observed.

This is an account of results in patent US20100297015A1, “CANCER BIOMARKER AND USES THEREOF” (priority 2007, published 2010).

Consider `Nc1cc(O)nc(N)n1` [DAHP, 2,4-diamino-6-hydroxypyrimidine], for which the GTPCH protein activity entry in the data set on GTPCH was “inhibits GTPCH protein activity”.

With “GCH1 siRNA: siRNA comprising the sequences of Seq ID Nos: 1 and 2, designed to reduce GTPCH expression (chain 1 CCUAAACGAUGCUAUAUUUTT; chain 2 AAAUAUAGCAUCGUUUAGGTT; chemistry not given here)”, in the data set on human GTPCH, the Akt phosphorylation entry is “Reduction” and the GTPCH expression entry is “Downregulated”.
